# Article PMC9150124, “Design of a Potent, Selective, and Brain-Penetrant Inhibitor of Wnt-Deactivating Enzyme Notum by Optimization of a Crystallographic Fragment Hit” (Journal of Medicinal Chemistry, 2022)
# Tests used:
# Assay in all cases: SelectScreen kinase profiling, SSBK ZLyte SP Technology
# Format in all cases: biochemical
# [1] = biological target: kinase named in conditions (Homo sapiens, UniProt O00418); settings: EEF2K, 10 μM
# Description: (§1) Kinase selectivity screening was performed by Thermo Fisher Scientific (Paisley, U.K.) in their SelectScreen Biochemical Kinase Profiling Service. Assay information and data are presented in the Supporting Information.
# (§2) Kinase selectivity screening was performed by ThermoFisher Scientific (Paisley, U.K.) in their SelectScreenTM
# (§3) Biochemical Kinase Profiling service .
# [2] = biological target: kinase named in conditions (Homo sapiens, UniProt O43293); settings: DAPK3 (ZIPK), 10 μM
# Description: as §1, §2, §3
# [3] = biological target: kinase named in conditions (Homo sapiens, UniProt O43781); settings: DYRK3, 10 μM
# Description: as §1, §2, §3
# [4] = biological target: kinase named in conditions (Homo sapiens, UniProt O60674)
# kinase named in conditions (Homo sapiens, UniProt O60674), sequence (O60674 whole entry): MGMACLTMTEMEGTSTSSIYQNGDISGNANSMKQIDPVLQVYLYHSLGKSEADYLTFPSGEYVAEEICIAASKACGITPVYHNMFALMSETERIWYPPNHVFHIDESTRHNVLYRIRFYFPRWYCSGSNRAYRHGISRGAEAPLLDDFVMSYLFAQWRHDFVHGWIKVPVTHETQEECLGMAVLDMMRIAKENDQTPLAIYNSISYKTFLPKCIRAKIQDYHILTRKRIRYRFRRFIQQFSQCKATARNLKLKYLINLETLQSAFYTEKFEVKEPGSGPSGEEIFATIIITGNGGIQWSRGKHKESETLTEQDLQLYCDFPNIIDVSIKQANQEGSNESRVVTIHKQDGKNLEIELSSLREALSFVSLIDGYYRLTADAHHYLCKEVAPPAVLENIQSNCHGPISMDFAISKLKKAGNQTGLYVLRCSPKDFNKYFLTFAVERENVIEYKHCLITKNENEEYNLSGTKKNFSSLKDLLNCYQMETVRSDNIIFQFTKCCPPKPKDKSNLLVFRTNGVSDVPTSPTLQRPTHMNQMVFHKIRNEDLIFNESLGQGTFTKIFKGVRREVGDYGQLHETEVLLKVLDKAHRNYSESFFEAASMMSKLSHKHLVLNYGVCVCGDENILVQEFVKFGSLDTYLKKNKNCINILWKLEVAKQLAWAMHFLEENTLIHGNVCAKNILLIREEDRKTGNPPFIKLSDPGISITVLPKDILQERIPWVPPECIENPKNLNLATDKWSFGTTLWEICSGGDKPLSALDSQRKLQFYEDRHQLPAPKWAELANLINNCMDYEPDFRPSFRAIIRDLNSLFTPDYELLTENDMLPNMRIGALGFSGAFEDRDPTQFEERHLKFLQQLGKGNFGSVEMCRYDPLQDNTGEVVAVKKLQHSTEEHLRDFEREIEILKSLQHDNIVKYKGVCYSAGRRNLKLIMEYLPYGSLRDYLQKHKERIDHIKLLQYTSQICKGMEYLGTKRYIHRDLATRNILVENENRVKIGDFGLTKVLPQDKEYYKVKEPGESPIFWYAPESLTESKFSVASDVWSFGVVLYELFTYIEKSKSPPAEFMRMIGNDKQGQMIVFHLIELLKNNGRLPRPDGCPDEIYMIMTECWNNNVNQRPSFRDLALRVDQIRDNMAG
# Description: as §1, §2, §3
# [5] = biological target: kinase named in conditions (Homo sapiens, UniProt O60674, V617F); settings: JAK2 JH1 JH2 V617F, 10 μM
# Description: as §1, §2, §3
# [6] = biological target: kinase named in conditions (Homo sapiens, UniProt P00519); settings: ABL1, 10 μM
# Description: as §1, §2, §3
# [7] = biological target: kinase named in conditions (Homo sapiens, UniProt P00519, Y253F); settings: ABL1 Y253F, 10 μM
# Description: as §1, §2, §3
# [8] = biological target: kinase named in conditions (Homo sapiens, UniProt P04629); settings: NTRK1 (TRKA), 10 μM
# kinase named in conditions (Homo sapiens, UniProt P04629), sequence (P04629 33-796): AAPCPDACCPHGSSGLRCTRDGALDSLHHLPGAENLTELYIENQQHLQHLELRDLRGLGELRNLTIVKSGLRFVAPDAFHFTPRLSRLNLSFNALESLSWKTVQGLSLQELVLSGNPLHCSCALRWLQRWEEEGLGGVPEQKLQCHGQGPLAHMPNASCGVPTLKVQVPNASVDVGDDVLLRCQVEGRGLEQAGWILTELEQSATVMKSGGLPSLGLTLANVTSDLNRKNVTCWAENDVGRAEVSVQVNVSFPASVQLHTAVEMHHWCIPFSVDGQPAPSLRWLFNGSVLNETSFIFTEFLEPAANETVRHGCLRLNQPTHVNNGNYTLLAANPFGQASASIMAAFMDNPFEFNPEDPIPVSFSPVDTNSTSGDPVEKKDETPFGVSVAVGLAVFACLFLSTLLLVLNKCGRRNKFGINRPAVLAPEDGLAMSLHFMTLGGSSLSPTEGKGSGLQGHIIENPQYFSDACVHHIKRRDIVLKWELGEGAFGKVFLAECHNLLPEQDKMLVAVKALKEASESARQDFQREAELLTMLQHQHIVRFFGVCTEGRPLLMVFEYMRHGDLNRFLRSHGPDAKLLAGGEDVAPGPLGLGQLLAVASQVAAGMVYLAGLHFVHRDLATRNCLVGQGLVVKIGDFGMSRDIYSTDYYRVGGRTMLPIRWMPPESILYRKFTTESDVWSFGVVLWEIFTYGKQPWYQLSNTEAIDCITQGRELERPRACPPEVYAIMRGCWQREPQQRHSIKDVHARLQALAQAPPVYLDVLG
# Description: as §1, §2, §3
# [9] = biological target: kinase named in conditions (Homo sapiens, UniProt P05129); settings: PRKCG (PKC gamma), 10 μM
# Description: as §1, §2, §3
# [10] = biological target: kinase named in conditions (Homo sapiens, UniProt P07949, V804L); settings: RET V804L, 10 μM
# kinase named in conditions (Homo sapiens, UniProt P07949, V804L), sequence (P07949 29-1114 V804L): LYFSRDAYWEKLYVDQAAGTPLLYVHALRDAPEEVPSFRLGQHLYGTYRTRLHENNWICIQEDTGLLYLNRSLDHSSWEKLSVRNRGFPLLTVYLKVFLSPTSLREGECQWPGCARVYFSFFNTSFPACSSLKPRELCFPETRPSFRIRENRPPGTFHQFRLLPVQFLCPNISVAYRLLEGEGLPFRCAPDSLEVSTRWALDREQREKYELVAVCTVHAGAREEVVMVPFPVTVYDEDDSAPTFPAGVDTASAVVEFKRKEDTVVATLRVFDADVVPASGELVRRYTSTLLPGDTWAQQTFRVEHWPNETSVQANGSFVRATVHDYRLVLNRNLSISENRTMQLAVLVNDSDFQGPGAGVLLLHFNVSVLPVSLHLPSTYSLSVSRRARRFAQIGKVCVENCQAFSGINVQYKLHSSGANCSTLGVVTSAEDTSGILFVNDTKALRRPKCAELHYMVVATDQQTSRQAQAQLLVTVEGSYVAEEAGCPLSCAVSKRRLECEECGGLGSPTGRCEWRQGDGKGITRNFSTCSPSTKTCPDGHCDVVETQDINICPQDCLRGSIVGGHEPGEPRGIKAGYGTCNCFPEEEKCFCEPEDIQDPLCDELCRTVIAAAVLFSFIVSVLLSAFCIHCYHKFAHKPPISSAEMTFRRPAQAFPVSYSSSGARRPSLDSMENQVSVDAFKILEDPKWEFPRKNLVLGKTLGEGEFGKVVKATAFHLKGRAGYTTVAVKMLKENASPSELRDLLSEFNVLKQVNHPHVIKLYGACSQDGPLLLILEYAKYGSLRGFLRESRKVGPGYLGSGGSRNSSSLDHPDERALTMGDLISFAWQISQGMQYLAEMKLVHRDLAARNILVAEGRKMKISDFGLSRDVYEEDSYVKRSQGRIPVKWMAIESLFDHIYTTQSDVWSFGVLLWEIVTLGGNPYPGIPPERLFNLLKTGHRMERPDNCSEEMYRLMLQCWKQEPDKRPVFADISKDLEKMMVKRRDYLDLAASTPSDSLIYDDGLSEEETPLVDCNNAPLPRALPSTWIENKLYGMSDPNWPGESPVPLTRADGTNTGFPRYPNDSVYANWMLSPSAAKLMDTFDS
# Description: as §1, §2, §3
# [11] = biological target: kinase named in conditions (Homo sapiens, UniProt P08581, M1250T); settings: MET M1250T, 10 μM
# Description: as §1, §2, §3
# [12] = biological target: kinase named in conditions (Homo sapiens, UniProt P08922); settings: ROS1, 10 μM
# Description: as §1, §2, §3
# [13] = biological target: kinase named in conditions (Homo sapiens, UniProt P11309); settings: PIM1, 10 μM
# kinase named in conditions (Homo sapiens, UniProt P11309), sequence (P11309 whole entry): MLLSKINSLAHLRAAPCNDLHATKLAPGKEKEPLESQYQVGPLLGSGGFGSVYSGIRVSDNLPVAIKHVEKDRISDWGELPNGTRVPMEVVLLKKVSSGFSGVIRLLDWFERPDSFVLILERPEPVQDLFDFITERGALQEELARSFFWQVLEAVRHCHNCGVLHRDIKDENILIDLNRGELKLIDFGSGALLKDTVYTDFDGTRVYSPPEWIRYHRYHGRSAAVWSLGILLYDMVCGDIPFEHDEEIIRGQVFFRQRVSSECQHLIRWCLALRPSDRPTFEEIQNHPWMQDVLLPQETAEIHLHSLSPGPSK
# Description: as §1, §2, §3
# [14] = biological target: kinase named in conditions (Homo sapiens, UniProt P21802, N549H); settings: FGFR2 N549H, 10 μM
# Description: as §1, §2, §3
# [15] = biological target: kinase named in conditions (Homo sapiens, UniProt P29323); settings: EPHB2, 10 μM
# Description: as §1, §2, §3
# [16] = biological target: kinase named in conditions (Homo sapiens, UniProt P31749); settings: AKT1 (PKB alpha), 10 μM
# Description: as §1, §2, §3
# [17] = biological target: kinase named in conditions (Homo sapiens, UniProt P36896); settings: ACVR1B (ALK4), 10 μM
# Description: as §1, §2, §3
# [18] = biological target: kinase named in conditions (Homo sapiens, UniProt P41279); settings: MAP3K8 (COT), 10 μM
# Description: as §1, §2, §3
# [19] = biological target: kinase named in conditions (Homo sapiens, UniProt P43403); settings: ZAP70, 10 μM
# kinase named in conditions (Homo sapiens, UniProt P43403), sequence (P43403 whole entry): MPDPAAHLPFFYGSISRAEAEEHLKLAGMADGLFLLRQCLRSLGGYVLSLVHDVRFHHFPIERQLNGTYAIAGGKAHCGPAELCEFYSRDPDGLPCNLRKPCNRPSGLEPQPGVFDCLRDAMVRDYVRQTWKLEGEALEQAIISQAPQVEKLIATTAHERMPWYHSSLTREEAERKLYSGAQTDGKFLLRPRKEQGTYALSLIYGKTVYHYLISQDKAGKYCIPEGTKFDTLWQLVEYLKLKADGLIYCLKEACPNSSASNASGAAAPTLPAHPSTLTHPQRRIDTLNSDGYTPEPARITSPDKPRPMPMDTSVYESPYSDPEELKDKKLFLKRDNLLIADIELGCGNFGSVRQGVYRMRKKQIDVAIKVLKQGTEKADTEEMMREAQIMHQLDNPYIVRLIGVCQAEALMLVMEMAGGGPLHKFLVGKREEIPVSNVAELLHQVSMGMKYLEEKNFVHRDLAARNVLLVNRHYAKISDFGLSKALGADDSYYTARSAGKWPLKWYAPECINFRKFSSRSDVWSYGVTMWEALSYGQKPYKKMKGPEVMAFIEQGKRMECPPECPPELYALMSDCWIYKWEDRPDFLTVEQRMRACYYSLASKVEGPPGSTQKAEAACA
# Description: as §1, §2, §3
# [20] = biological target: kinase named in conditions (Homo sapiens, UniProt P48729); settings: CSNK1A1 (CK1 alpha 1), 10 μM
# Description: as §1, §2, §3
# [21] = biological target: kinase named in conditions (Homo sapiens, UniProt P49759); settings: CLK1, 10 μM
# Description: as §1, §2, §3
# [22] = biological target: kinase named in conditions (Homo sapiens, UniProt P54762); settings: EPHB1, 10 μM
# Description: as §1, §2, §3
# [23] = biological target: kinase named in conditions (Homo sapiens, UniProt P78368); settings: CSNK1G2 (CK1 gamma 2), 10 μM
# Description: as §1, §2, §3
# [24] = biological target: kinase named in conditions (Homo sapiens, UniProt Q02750); settings: MAP2K1 (MEK1), 10 μM
# kinase named in conditions (Homo sapiens, UniProt Q02750), sequence (Q02750 whole entry): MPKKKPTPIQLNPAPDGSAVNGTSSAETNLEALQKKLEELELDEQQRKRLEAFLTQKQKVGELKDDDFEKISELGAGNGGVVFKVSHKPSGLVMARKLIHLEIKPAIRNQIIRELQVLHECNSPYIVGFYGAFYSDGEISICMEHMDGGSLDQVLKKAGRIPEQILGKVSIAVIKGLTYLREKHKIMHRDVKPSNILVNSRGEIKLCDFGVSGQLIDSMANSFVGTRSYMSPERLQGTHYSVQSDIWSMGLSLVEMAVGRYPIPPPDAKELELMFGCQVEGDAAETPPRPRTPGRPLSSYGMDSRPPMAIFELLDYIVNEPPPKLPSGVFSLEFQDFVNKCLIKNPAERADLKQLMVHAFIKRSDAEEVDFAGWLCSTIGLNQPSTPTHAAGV
# Description: as §1, §2, §3
# [25] = biological target: kinase named in conditions (Homo sapiens, UniProt Q05397); settings: PTK2 (FAK), 10 μM
# Description: as §1, §2, §3
# [26] = biological target: kinase named in conditions (Homo sapiens, UniProt Q15418); settings: RPS6KA1 (RSK1), 10 μM
# Description: as §1, §2, §3
# [27] = biological target: kinase named in conditions (Homo sapiens, UniProt Q16566); settings: CAMK4 (CaMKIV), 10 μM
# Description: as §1, §2, §3
# [28] = biological target: kinase named in conditions (Homo sapiens, UniProt Q7KZI7); settings: MARK2, 10 μM
# Description: as §1, §2, §3
# [29] = biological target: kinase named in conditions (Homo sapiens, UniProt Q8N4C8); settings: MINK1, 10 μM
# Description: as §1, §2, §3
# [30] = biological target: kinase named in conditions (Homo sapiens, UniProt Q96RG2); settings: PASK, 10 μM
# Description: as §1, §2, §3
# [31] = biological target: kinase named in conditions (Homo sapiens, UniProt Q96SB4); settings: SRPK1, 10 μM
# Description: as §1, §2, §3
# [32] = biological target: kinase named in conditions (Homo sapiens, UniProt Q9H0K1); settings: SNF1LK2, 10 μM
# Description: as §1, §2, §3
# [33] = biological target: kinase named in conditions (Homo sapiens, UniProt Q9H2X6); settings: HIPK2, 10 μM
# Description: as §1, §2, §3
# [34] = biological target: kinase named in conditions (Homo sapiens, UniProt Q9H3Y6); settings: SRMS (Srm), 10 μM
# Description: as §1, §2, §3
# kinase named in conditions (Homo sapiens, UniProt O00418), sequence (O00418 whole entry): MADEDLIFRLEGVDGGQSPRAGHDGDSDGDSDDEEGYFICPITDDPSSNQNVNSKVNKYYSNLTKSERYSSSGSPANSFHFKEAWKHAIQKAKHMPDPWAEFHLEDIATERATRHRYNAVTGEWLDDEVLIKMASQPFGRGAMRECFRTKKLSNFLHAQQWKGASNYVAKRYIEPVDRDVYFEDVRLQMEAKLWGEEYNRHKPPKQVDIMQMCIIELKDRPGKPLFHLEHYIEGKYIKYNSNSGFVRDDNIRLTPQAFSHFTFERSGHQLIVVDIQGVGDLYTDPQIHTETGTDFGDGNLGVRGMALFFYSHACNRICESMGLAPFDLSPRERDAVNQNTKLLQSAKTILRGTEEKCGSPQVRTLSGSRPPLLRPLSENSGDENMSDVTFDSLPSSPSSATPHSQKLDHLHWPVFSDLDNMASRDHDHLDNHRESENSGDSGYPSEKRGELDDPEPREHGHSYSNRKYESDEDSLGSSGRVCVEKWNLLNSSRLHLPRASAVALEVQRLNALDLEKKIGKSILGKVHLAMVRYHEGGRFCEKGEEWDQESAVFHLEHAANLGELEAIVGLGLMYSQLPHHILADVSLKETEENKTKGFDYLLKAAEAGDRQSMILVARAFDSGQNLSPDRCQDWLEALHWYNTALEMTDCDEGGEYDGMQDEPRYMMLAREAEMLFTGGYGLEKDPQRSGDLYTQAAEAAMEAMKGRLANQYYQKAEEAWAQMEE
structure (smiles),measurement,setting,value
"FC(F)(F)c1c(Cl)ccc(-n2ccnn2)c1Cl [8l, 1-(2,4-Dichloro-3-(trifluoromethyl)phenyl)-1H-1,2,3-triazole]",inhibition at 10 µM,[1],3%
same,inhibition at 10 µM,[2],8%
same,inhibition at 10 µM,[3],1%
same,inhibition at 10 µM,"[4]; JAK2, 10 μM",3%
same,inhibition at 10 µM,"[4]; JAK2 JH1 JH2, 10 μM",-1%
same,inhibition at 10 µM,[5],-4%
same,inhibition at 10 µM,[6],19%
same,inhibition at 10 µM,[7],13%
same,inhibition at 10 µM,[8],3%
same,inhibition at 10 µM,[9],12%
same,inhibition at 10 µM,[10],8%
same,inhibition at 10 µM,[11],3%
same,inhibition at 10 µM,[12],9%
same,inhibition at 10 µM,[13],6%
same,inhibition at 10 µM,[14],17%
same,inhibition at 10 µM,[15],2%
same,inhibition at 10 µM,[16],7%
same,inhibition at 10 µM,[17],-12%
same,inhibition at 10 µM,[18],0%
same,inhibition at 10 µM,[19],24%
same,inhibition at 10 µM,[20],2%
same,inhibition at 10 µM,[21],0%
same,inhibition at 10 µM,[22],3%
same,inhibition at 10 µM,[23],-2%
same,inhibition at 10 µM,[24],-5%
same,inhibition at 10 µM,[25],4%
same,inhibition at 10 µM,[26],8%
same,inhibition at 10 µM,[27],15%
same,inhibition at 10 µM,[28],-7%
same,inhibition at 10 µM,[29],14%
same,inhibition at 10 µM,[30],-1%
same,inhibition at 10 µM,[31],2%
same,inhibition at 10 µM,[32],2%
same,inhibition at 10 µM,[33],2%
same,inhibition at 10 µM,[34],10%
